Measured values: patent US9452986B2, “6-heteroaryloxy- or 6-aryloxy-quinoline-2-carboxamides and method of use” (AbbVie Inc., priority 2014, dated 2016)

Biological target: recombinant human Nav1.7 (Homo sapiens (Human), UniProt Q15858)
Assay: FRET-based membrane potential assay, recombinant human sodium channel Nav1.7
Format: cell-based
Conditions: FRET-Membrane Potential Nav1.7 IC50
Procedure, shortened: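 Channel activation used veratridine at its EC80, set by a dilution curve each experiment, together with Leiurus scorpion venom, added 3 min after compound. Membrane-potential ratio signals from FLIPR Tetra in HEPES-buffered HBSS were fitted to a four-parameter Hill equation for percent inhibition and IC50.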

Sequence of recombinant human Nav1.7 (Q15858 whole entry): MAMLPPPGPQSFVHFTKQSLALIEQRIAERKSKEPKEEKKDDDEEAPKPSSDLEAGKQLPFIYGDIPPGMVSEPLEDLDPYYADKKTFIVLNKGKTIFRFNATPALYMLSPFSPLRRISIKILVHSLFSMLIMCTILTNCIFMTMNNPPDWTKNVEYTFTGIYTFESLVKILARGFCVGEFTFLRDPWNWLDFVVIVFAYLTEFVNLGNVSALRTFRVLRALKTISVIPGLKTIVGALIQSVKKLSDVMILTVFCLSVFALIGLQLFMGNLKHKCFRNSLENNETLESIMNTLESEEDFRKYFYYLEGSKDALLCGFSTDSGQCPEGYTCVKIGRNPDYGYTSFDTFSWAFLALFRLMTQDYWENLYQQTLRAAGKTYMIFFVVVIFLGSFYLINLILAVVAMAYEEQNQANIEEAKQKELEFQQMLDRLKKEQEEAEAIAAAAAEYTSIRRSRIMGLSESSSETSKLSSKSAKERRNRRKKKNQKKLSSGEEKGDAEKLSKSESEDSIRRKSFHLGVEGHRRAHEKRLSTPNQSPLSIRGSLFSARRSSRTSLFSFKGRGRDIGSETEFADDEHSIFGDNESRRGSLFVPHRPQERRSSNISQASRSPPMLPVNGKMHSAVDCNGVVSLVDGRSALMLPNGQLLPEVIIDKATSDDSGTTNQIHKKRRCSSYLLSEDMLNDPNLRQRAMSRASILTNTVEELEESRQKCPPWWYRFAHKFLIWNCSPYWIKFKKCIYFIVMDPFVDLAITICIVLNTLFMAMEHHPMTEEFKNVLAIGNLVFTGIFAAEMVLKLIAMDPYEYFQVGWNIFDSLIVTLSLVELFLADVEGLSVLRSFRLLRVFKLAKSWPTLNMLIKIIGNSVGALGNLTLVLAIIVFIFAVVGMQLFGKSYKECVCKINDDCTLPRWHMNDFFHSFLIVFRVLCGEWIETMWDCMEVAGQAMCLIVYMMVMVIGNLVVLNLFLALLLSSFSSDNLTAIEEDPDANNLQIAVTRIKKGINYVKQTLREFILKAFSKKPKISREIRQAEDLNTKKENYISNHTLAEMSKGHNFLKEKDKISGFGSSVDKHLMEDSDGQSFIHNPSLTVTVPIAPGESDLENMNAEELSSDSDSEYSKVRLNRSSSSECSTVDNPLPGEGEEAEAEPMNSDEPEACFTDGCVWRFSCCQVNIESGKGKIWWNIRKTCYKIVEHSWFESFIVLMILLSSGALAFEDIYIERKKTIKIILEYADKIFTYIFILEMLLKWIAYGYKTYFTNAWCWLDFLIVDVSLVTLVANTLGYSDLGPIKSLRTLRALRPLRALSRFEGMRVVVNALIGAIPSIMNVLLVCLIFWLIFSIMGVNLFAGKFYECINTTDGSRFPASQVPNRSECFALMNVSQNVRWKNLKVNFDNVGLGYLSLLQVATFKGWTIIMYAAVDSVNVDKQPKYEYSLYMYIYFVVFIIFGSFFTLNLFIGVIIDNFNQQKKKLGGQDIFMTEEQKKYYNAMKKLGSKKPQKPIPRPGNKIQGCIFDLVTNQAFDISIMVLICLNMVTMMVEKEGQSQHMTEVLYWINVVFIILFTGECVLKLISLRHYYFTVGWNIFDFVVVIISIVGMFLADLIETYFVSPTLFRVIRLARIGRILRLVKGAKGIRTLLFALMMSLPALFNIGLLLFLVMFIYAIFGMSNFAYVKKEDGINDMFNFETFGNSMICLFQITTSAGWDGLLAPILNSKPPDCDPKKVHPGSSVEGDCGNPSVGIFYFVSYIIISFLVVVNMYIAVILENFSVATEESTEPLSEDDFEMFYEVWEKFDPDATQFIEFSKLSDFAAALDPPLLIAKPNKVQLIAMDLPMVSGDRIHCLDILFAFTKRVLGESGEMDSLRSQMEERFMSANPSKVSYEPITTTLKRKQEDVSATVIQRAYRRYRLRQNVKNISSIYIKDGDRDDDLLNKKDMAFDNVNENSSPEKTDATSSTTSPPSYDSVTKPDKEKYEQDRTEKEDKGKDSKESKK

**Q.** With O=C(c1ccc2cc(Oc3ccc(C(F)(F)F)cn3)ccc2n1)N1CCN[C@H](CO)C1 [Example 276, [(3S)-3-(hydroxymethyl)piperazin-1-yl](6-{[5-(trifluoromethyl)pyridin-2-yl]oxy}quinolin-2-yl)methanone] as the compound, how does the IC50 read?
**A.** The IC50 was 3.1 µM.

Same assay, conditions: HEK293 cells stably expressing recombinant human Nav1.7; veratridine + scorpion venom depolarization; read-out: FRET-Membrane Potential Nav1.7 IC50

**Q.** For O=C(c1ccc2cc(Oc3ccc(C(F)(F)F)cn3)ccc2n1)N1CCC2(CC1)OCCO2 [Example 240, 1,4-dioxa-8-azaspiro[4.5]dec-8-yl(6-{[5-(trifluoromethyl)pyridin-2-yl]oxy}quinolin-2-yl)methanone], which IC50 is on record?
**A.** The IC50 was 2.01 µM.

**Q.** For O=C(c1ccc2cc(Oc3ccc(C(F)(F)F)cn3)ccc2n1)N1C[C@H]2C[C@@H]1CN2 [Example 241, (1R,4R)-2,5-diazabicyclo[2.2.1]hept-2-yl(6-{[5-(trifluoromethyl)pyridin-2-yl]oxy}quinolin-2-yl)methanone], which IC50 is on record?
**A.** The IC50 was 1.85 µM.

**Q.** O=C(c1ccc2cc(Oc3ncccn3)ccc2n1)N1CCNCC1 [Example 242, piperazin-1-yl[6-(pyrimidin-2-yloxy)quinolin-2-yl]methanone] was tested. Which IC50 did it give?
**A.** Its IC50 is > 20 µM.

**Q.** Which IC50 does the source give for O=C(c1ccc2cc(Oc3ccc(C(F)(F)F)cn3)ccc2n1)N1CCNC[C@@H]1CO [Example 243, [(2R)-2-(hydroxymethyl)piperazin-1-yl](6-{[5-(trifluoromethyl)pyridin-2-yl]oxy}quinolin-2-yl)methanone] here?
**A.** Its IC50 is > 20 µM.

**Q.** For O=C(c1ccc2cc(Oc3ncc(F)cn3)ccc2n1)N1CCNCC1 [Example 244, {6[(5-fluoropyrimidin-2-yl)oxy]quinolin-2-yl}(piperazin-1-yl)methanone], which IC50 is on record?
**A.** Its IC50 is > 20 µM.

**Q.** O=C(c1ccc2cc(Oc3ccc(C(F)(F)F)nn3)ccc2n1)N1CCNCC1 [Example 246, piperazin-1-yl(6-{[6-(trifluoromethyl)pyridazin-3-yl]oxy}quinolin-2-yl)methanone] was tested. Which IC50 did it give?
**A.** Its IC50 is 19.8 µM.

**Q.** For N[C@H]1CC[C@@H]2CN(C(=O)c3ccc4cc(Oc5ccc(C(F)(F)F)cn5)ccc4n3)C[C@@H]21 [Example 248, [(3aR,4S,6aS)-4-aminohexahydrocyclopenta[c]pyrrol-2(1H)-yl](6-{[5-(trifluoromethyl)pyridin-2-yl]oxy}quinolin-2-yl)methanone], which IC50 is on record?
**A.** The IC50 was 17.3 µM.

**Q.** O=C(c1ccc2cc(Oc3ccc(C(F)(F)F)cn3)ccc2n1)N1CCN(C2COC2)CC1 [Example 252, [4-(oxetan-3-yl)piperazin-1-yl](6-{[5-(trifluoromethyl)pyridin-2-yl]oxy}quinolin-2-yl)methanone] was tested. Which IC50 did it give?
**A.** Its IC50 is > 20 µM.

**Q.** O=C(c1ccc2cc(Oc3ccc(C(F)(F)F)cn3)ccc2n1)N1CCc2ccccc2C1 [Example 253, 3,4-dihydroisoquinolin-2(1H)-yl(6-{[5-(trifluoromethyl)pyridin-2-yl]oxy}quinolin-2-yl)methanone] was tested. Which IC50 did it give?
**A.** Its IC50 is > 20 µM.

**Q.** With CS(=O)(=O)C1CCN(C(=O)c2ccc3cc(Oc4ccc(C(F)(F)F)cn4)ccc3n2)CC1 [Example 254, [4-(methylsulfonyl)piperidin-1-yl](6-{[5-(trifluoromethyl)pyridin-2-yl]oxy}quinolin-2-yl)methanone] as the compound, how does the IC50 read?
**A.** Its IC50 is 13.8 µM.

**Q.** Which IC50 does the source give for CC1(O)CCN(C(=O)c2ccc3cc(Oc4ccc(C(F)(F)F)cn4)ccc3n2)CC1 [Example 255, (4-hydroxy-4-methylpiperidin-1-yl)(6-{[5-(trifluoromethyl)pyridin-2-yl]oxy}quinolin-2-yl)methanone] here?
**A.** The IC50 was 12.1 µM.

**Q.** For O=C(c1ccc2cc(Oc3ccc(C(F)(F)F)cn3)ccc2n1)N1C[C@@H]2C[C@@H](CO)[C@H]1C2 [Example 257, [(1R,4R,6R)-6-(hydroxymethyl)-2-azabicyclo[2.2.1]hept-2-yl](6-{[5-(trifluoromethyl)pyridin-2-yl]oxy}quinolin-2-yl)methanone], which IC50 is on record?
**A.** The IC50 was 10.6 µM.

**Q.** For O=C(c1ccc2cc(Oc3ccc(C(F)(F)F)cn3)ccc2n1)N1C[C@@H]2C[C@H](CO)[C@H]1C2 [Example 258, [(1R,4R,6S)-6-(hydroxymethyl)-2-azabicyclo[2.2.1]hept-2-yl](6-{[5-(trifluoromethyl)pyridin-2-yl]oxy}quinolin-2-yl)methanone], which IC50 is on record?
**A.** Its IC50 is 6.13 µM.

**Q.** For CN1CCCN(C(=O)c2ccc3cc(Oc4ccc(C(F)(F)F)cn4)ccc3n2)CC1 [Example 260, (4-methyl-1,4-diazepan-1-yl)(6-{[5-(trifluoromethyl)pyridin-2-yl]oxy}quinolin-2-yl)methanone], which IC50 is on record?
**A.** The IC50 was 1.04 µM.

**Q.** With O=C(c1ccc2cc(Oc3ccc(C(F)(F)F)cn3)ccc2n1)N1CCN(C2CC2)CC1 [Example 261, (4-cyclopropylpiperazin-1-yl)(6-{[5-(trifluoromethyl)pyridin-2-yl]oxy}quinolin-2-yl)methanone] as the compound, how does the IC50 read?
**A.** The IC50 was 6.31 µM.

**Q.** How did the IC50 turn out when O=C(c1ccc2cc(Oc3ccc(C(F)(F)F)cn3)ccc2n1)N1CCN(c2ccccc2)CC1 [Example 262, (4-phenylpiperazin-1-yl)(6-{[5-(trifluoromethyl)pyridin-2-yl]oxy}quinolin-2-yl)methanone] was run?
**A.** Its IC50 is 2.09 µM.

**Q.** Which IC50 does the source give for CC(C)[C@@H]1CN(C(=O)c2ccc3cc(Oc4ccc(C(F)(F)F)cn4)ccc3n2)CCN1 [Example 263, [(3R)-3-isopropylpiperazin-1-yl](6-{[5-(trifluoromethyl)pyridin-2-yl]oxy}quinolin-2-yl)methanone] here?
**A.** Its IC50 is 0.402 µM.

**Q.** O=C(NC1CCNCC1)c1ccc2cc(Oc3ccc(C(F)(F)F)cn3)ccc2n1 [Example 264, N-(piperidin-4-yl)-6-{[5-(trifluoromethyl)pyridin-2-yl]oxy}quinoline-2-carboxamide] was tested. Which IC50 did it give?
**A.** Its IC50 is 3.21 µM.

**Q.** For O=C(c1ccc2cc(Oc3ccc(C(F)(F)F)cn3)ccc2n1)N1CCC(CO)CC1 [Example 265, [4-(hydroxymethyl)piperidin-1-yl](6-{[5-(trifluoromethyl)pyridin-2-yl]oxy}quinolin-2-yl)methanone], which IC50 is on record?
**A.** The IC50 was 3.45 µM.

**Q.** Which IC50 does the source give for O=C(c1ccc2cc(Oc3ccc(C(F)(F)F)cn3)ccc2n1)N1CCC(CO)C1 (stereo not drawn) [Example 266, [3-(hydroxymethyl)pyrrolidin-1-yl](6-{[5-(trifluoromethyl)pyridin-2-yl]oxy}quinolin-2-yl)methanone] here?
**A.** Its IC50 is 5.76 µM.

**Q.** For O=C(c1ccc2cc(Oc3ccc(C(F)(F)F)cn3)ccc2n1)N1CCN(c2cnccn2)CC1 [Example 268, [4-(pyrazin-2-yl)piperazin-1-yl](6-{[5-(trifluoromethyl)pyridin-2-yl]oxy}quinolin-2-yl)methanone], which IC50 is on record?
**A.** The IC50 was 2.98 µM.

**Q.** For O=C(c1ccc2cc(Oc3ccc(C(F)(F)F)cn3)ccc2n1)N1CCN(c2cccnc2)CC1 [Example 269, [4-(pyridin-3-yl)piperazin-1-yl](6-{[5-(trifluoromethyl)pyridin-2-yl]oxy}quinolin-2-yl)methanone], which IC50 is on record?
**A.** The IC50 was 3.07 µM.

**Q.** Which IC50 does the source give for O=C(c1ccc2cc(Oc3ccc(C(F)(F)F)cn3)ccc2n1)N1CCN(c2ncccn2)CC1 [Example 270, [4-(pyrimidin-2-yl)piperazin-1-yl](6-{[5-(trifluoromethyl)pyridin-2-yl]oxy}quinolin-2-yl)methanone] here?
**A.** Its IC50 is 3.08 µM.

**Q.** With O=C(c1ccc2cc(Oc3ccc(C(F)(F)F)cn3)ccc2n1)N1CCN(c2ccc(Cl)cn2)CC1 [Example 272, [4-(5-chloropyridin-2-yl)piperazin-1-yl](6-{[5-(trifluoromethyl)pyridin-2-yl]oxy}quinolin-2-yl)methanone] as the compound, how does the IC50 read?
**A.** The IC50 was 2.99 µM.

**Q.** CC[C@H]1CN(C(=O)c2ccc3cc(Oc4ccc(C(F)(F)F)cn4)ccc3n2)CCN1 [Example 273, [(3S)-3-ethylpiperazin-1-yl](6-{[5-(trifluoromethyl)pyridin-2-yl]oxy}quinolin-2-yl)methanone] was tested. Which IC50 did it give?
**A.** Its IC50 is 0.488 µM.

**Q.** CC(C)[C@H]1CN(C(=O)c2ccc3cc(Oc4ccc(C(F)(F)F)cn4)ccc3n2)CCN1 [Example 274, [(3S)-3-isopropylpiperazin-1-yl](6-{[5-(trifluoromethyl)pyridin-2-yl]oxy}quinolin-2-yl)methanone] was tested. Which IC50 did it give?
**A.** The IC50 was 0.304 µM.

**Q.** Which IC50 does the source give for CC(O)c1ccc(Oc2ccc3nc(C(=O)N4CCNCC4)ccc3c2)cc1 (stereo not drawn) [Example 275, {6-[4-(1-hydroxyethyl)phenoxy]quinolin-2-yl}(piperazin-1-yl)methanone] here?
**A.** The IC50 was 11.4 µM.

Same assay, conditions: read-out: FRET-Membrane Potential Nav1.7 IC50

**Q.** For O=C(c1ccc2cc(Oc3cnc(C(F)(F)F)cn3)ccc2n1)N1CCNCC1 [Example 245, piperazin-1-yl(6-{[5-(trifluoromethyl)pyrazin-2-yl]oxy}quinolin-2-yl)methanone], which IC50 is on record?
**A.** The IC50 was 4.63 µM.

**Q.** With O=C(c1ccc2cc(Oc3ncc(C(F)(F)F)cn3)ccc2n1)N1CCNCC1 [Example 247, piperazin-1-yl(6-{[5-(trifluoromethyl)pyrimidin-2-yl]oxy}quinolin-2-yl)methanone] as the compound, how does the IC50 read?
**A.** Its IC50 is 13.3 µM.

**Q.** For O=C(c1ccc2cc(Oc3ccc(C(F)(F)F)cc3)ccc2n1)N1CCNCC1 [Example 249, piperazin-1-yl {6-[4-(trifluoromethyl)phenoxy]quinolin-2-yl}methanone], which IC50 is on record?
**A.** Its IC50 is 0.902 µM.

**Q.** How did the IC50 turn out when O=C(c1ccc2cc(Oc3ncc(C(F)(F)F)cc3F)ccc2n1)N1CCNCC1 [Example 250, (6-{[3-fluoro-5-(trifluoromethyl)pyridin-2-yl]oxy}quinolin-2-yl)(piperazin-1-yl)methanone] was run?
**A.** Its IC50 is 1.39 µM.

**Q.** O=C(c1ccc2cc(Oc3ccc(C(F)(F)F)cn3)ccc2n1)N1CCC(O)CC1 [Example 256, (4-hydroxypiperidin-1-yl)(6-{[5-(trifluoromethyl)pyridin-2-yl]oxy}quinolin-2-yl)methanone] was tested. Which IC50 did it give?
**A.** The IC50 was 16.4 µM.

**Q.** Which IC50 does the source give for O=C(N[C@@H]1CC[C@@H]2CN(Cc3ccccc3)C[C@@H]21)c1ccc2cc(Oc3ccc(C(F)(F)F)cn3)ccc2n1 [Example 259, N-[(3aR,4R,6aS)-2-benzyloctahydrocyclopenta[c]pyrrol-4-yl]-6-{[5-(trifluoromethyl)pyridin-2-yl]oxy}quinoline-2-carboxamide] here?
**A.** Its IC50 is 2.06 µM.

**Q.** Which IC50 does the source give for O=C(NC1CC2CCC(C1)N2)c1ccc2cc(Oc3ccc(C(F)(F)F)cn3)ccc2n1 (stereo not drawn) [Example 267, N-(8-azabicyclo[3.2.1]oct-3-yl)-6-{[5-(trifluoromethyl)pyridin-2-yl]oxy}quinoline-2-carboxamide] here?
**A.** The IC50 was 10.2 µM.

**Q.** For O=C(c1ccc2cc(Oc3ccc(C(F)(F)F)cn3)ccc2n1)N1CCN(c2cccnn2)CC1 [Example 271, [4-(pyridazin-3-yl)piperazin-1-yl](6-{[5-(trifluoromethyl)pyridin-2-yl]oxy}quinolin-2-yl)methanone], which IC50 is on record?
**A.** The IC50 was 11.2 µM.
